According to patent US10968236B2, “TYK2 inhibitors and uses thereof” (Nimbus Lakshmi, Inc., priority 2015, dated 2021):

What was measured:
TYK2 = TYK2 (Homo sapiens (Human), UniProt P29597); experiment: Tyk2 activity inhibition assay (radioactive kinase / Caliper assay); type: biochemical
[1] = tested on: IL-12 induced pSTAT4 (Tyk2-pSTAT4); experiment: IL-12 Induced pSTAT4 in human PBMC; type: cell-based; conditions: IL-12 1.7 ng/mL
Experimental: IL-12 Induced pSTAT4 in human PBMC. Human PBMC are isolated from buffy coat and are stored frozen for assays as needed. Cells for assay are thawed and resuspended in complete media containing serum, then cells are diluted to 1.67 E6 cells/ml so that 120 μl per well is 200,000 cells. 15 μl of compound or DMSO is added to the well at the desired concentrations and incubated at 1 hr at 37 C. 15 μl of stimulus (final concentration of 1.7 ng/mL IL-12) is added for 30 minutes prior to pSTAT4 and total STAT4 analysis using cell lysates prepared and analyzed by MSD reagents as per manufacturer protocol. The final DMSO concentration of compound in the assay is 0.1%.
(§1) The compound numbers correspond to the compound numbers in Table 1. Compounds having an activity designated as “A” provided an EC50≤2 μM; compounds having an activity designated as “B” provided a EC50 of 2-20 μM, and compounds having an activity designated as “C” provided an EC50>20 μM.

[2] = tested on: GM-CSF induced pSTAT5 (JAK2-pSTAT5); experiment: GM-CSF Induced pSTAT5 in human PBMC; type: cell-based; conditions: GM-CSF 5 ng/mL
Experimental: GM-CSF Induced pSTAT5 in human PBMC. Cells are prepared for analysis as in the above procedure and 15 μl of GM-CSF (final concentration 5 ng/mL) is added for 20 minutes prior to pSTAT5 and total STAT5 analysis using cell lysates prepared and analyzed by MSD reagents as per manufacturer protocol. The final DMSO concentration of compound in the assay is 0.1%.
as §1

JAK2 = JAK2 (Homo sapiens (Human), UniProt O60674); experiment: JAK2 activity inhibition assay (radioactive kinase / Caliper assay); type: biochemical
Chain of JAK2 (O60674 whole entry): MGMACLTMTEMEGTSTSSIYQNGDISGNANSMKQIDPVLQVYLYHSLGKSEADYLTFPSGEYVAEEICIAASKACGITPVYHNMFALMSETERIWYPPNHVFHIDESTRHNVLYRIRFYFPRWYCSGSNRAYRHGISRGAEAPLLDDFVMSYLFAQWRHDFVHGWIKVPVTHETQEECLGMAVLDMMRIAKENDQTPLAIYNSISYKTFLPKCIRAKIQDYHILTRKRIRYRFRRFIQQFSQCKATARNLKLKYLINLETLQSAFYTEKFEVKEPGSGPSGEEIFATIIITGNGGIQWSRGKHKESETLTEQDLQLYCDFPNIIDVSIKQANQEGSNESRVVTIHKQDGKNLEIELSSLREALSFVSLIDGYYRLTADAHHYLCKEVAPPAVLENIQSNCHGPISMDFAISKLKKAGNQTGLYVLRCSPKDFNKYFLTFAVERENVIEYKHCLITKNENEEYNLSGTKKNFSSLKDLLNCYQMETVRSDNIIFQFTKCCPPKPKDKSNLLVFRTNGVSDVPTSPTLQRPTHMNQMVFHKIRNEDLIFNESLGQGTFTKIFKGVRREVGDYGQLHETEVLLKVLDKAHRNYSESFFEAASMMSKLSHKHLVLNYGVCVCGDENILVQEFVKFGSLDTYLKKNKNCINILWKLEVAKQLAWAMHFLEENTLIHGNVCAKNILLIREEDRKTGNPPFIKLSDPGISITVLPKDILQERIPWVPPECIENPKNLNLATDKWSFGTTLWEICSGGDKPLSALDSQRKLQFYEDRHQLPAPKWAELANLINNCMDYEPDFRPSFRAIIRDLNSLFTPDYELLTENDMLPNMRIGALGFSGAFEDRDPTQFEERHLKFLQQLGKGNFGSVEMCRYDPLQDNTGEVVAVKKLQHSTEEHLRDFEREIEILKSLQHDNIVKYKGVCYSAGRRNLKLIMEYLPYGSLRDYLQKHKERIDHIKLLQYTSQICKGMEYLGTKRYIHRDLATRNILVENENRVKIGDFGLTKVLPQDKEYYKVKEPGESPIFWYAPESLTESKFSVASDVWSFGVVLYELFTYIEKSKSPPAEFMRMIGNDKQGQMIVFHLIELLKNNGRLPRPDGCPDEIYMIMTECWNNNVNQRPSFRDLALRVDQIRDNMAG

Chain of TYK2 (P29597 whole entry): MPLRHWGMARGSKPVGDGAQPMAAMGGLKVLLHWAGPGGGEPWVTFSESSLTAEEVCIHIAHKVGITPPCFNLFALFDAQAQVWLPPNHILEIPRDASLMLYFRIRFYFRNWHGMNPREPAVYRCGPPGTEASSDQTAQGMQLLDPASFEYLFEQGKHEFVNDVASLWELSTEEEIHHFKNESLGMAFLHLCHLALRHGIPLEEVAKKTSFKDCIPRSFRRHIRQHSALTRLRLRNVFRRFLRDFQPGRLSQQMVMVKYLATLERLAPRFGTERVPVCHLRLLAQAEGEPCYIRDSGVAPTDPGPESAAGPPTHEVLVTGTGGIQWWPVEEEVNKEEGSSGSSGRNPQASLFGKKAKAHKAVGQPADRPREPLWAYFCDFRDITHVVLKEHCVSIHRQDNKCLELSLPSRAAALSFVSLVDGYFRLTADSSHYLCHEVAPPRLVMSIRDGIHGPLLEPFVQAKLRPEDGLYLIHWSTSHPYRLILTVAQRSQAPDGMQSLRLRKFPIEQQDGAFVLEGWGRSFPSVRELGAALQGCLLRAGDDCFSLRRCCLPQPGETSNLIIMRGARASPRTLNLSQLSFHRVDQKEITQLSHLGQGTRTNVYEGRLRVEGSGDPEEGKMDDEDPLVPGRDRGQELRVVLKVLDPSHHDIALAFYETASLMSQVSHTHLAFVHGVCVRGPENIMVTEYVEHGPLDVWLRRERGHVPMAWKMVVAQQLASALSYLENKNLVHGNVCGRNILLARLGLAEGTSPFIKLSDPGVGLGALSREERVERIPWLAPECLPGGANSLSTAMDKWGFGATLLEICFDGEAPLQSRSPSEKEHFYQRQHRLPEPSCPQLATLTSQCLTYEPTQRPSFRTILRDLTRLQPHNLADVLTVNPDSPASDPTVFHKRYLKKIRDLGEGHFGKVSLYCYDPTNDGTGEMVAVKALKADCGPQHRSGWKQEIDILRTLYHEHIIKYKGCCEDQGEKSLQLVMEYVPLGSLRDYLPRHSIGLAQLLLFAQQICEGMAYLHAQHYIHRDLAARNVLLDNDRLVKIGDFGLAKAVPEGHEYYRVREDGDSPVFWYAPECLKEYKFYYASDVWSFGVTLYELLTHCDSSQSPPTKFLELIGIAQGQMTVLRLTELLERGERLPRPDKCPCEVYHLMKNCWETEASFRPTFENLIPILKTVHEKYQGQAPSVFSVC

SMILES	Ki (TYK2)	EC50 [1]	EC50 [2]	Ki (JAK2)
O=C1NCc2nc(-c3c(F)cccc3F)cc(Nc3ccc(N4CCCC5(CCO5)C4)cn3)c21 (stereo not drawn) [Compound I-36, 4-((5-(1-oxa-6-azaspiro[3.5]nonan-6-yl)pyridin-2-yl)amino)-2-(2,6-difluorophenyl)-6,7-dihydro-5H-pyrrolo[3,4-b]pyridin-5-one]	≤ 10 nM	≤ 2000 nM	2000 to 20000 nM	10 to 100 nM
CC1(C)COc2cc(Nc3cc(-c4c(F)cccc4F)nc4c3C(=O)NC4)ccc21 [Compound I-70, 2-(2,6-difluorophenyl)-4-((3,3-dimethyl-2,3-dihydrobenzofuran-6-yl)amino)-6,7-dihydro-5H-pyrrolo[3,4-b]pyridin-5-one]	≤ 10 nM	≤ 2000 nM	> 20000 nM	100 to 1000 nM
N#Cc1cccc(F)c1-c1cc(Nc2ccc(N3CC[C@@]4(C[C@@H](O)CO4)C3)cn2)c2c(n1)CNC2=O [Compound I-88, 3-fluoro-2-(4-((5-((3R,5R)-3-hydroxy-1-oxa-7-azaspiro[4.4]nonan-7-yl)pyridin-2-yl)amino)-5-oxo-6,7-dihydro-5H-pyrrolo[3,4-b]pyridin-2-yl)benzonitrile]	≤ 10 nM	≤ 2000 nM	≤ 2000 nM	≤ 10 nM
CC1(C)CNc2cc(Nc3nc(-c4c(F)cccc4F)nc4c3C(=O)NC4)ccc21 [Compound I-2, 2-(2,6-difluorophenyl)-4-((3,3-dimethylindolin-6-yl)amino)-6,7-dihydro-5H-pyrrolo[3,4-d]pyrimidin-5-one]	≤ 10 nM	≤ 2000 nM	2000 to 20000 nM	10 to 100 nM
O=C1NCc2nc(-c3c(F)cccc3F)cc(Nc3ccc4c(n3)NCCCO4)c21 [Compound I-18, 2-(2,6-difluorophenyl)-4-((2,3,4,5-tetrahydropyrido[3,2-b][1,4]oxazepin-7-yl)amino)-6,7-dihydro-5H-pyrrolo[3,4-b]pyridin-5-one]	≤ 10 nM	≤ 2000 nM	2000 to 20000 nM	10 to 100 nM
N#Cc1cc(F)c(-c2cc(Nc3ccc(N4CCC5(CC4)CC5)cn3)c3c(n2)CNC3=O)c(F)c1 [Compound I-60, 4-(4-((5-(6-azaspiro[2.5]octan-6-yl)pyridin-2-yl)amino)-5-oxo-6,7-dihydro-5H-pyrrolo[3,4-b]pyridin-2-yl)-3,5-difluorobenzonitrile]	≤ 10 nM	≤ 2000 nM	2000 to 20000 nM	10 to 100 nM
O=C1NCc2nc(-c3c(F)cccc3F)cc(Nc3ccc(N4CCC5(CC4)OCCO5)cn3)c21 [Compound I-62, 4-((5-(1,4-dioxa-8-azaspiro[4.5]decan-8-yl)pyridin-2-yl)amino)-2-(2,6-difluorophenyl)-6,7-dihydro-5H-pyrrolo[3,4-b]pyridin-5-one]	≤ 10 nM	≤ 2000 nM	≤ 2000 nM	10 to 100 nM
N#Cc1cccc(F)c1-c1cc(Nc2ccc(N3CCC4(C[C@H](O)CO4)C3)cn2)c2c(n1)CNC2=O (stereo in doubt) [Compound I-93, 3-fluoro-2-(4-((5-((3S,5R)-3-hydroxy-1-oxa-7-azaspiro[4.4]nonan-7-yl)pyridin-2-yl)amino)-5-oxo-6,7-dihydro-5H-pyrrolo[3,4-b]pyridin-2-yl)benzonitrile]	≤ 10 nM	≤ 2000 nM	2000 to 20000 nM	10 to 100 nM
N#Cc1cccc(F)c1-c1cc(Nc2ccc(N3CCC4(C[C@H](O)CO4)C3)cn2)c2c(n1)CNC2=O (stereo in doubt) [Compound I-91, 3-fluoro-2-(4-((5-((3S,5S)-3-hydroxy-1-oxa-7-azaspiro[4.4]nonan-7-yl)pyridin-2-yl)amino)-5-oxo-6,7-dihydro-5H-pyrrolo[3,4-b]pyridin-2-yl)benzonitrile]	≤ 10 nM	≤ 2000 nM	≤ 2000 nM	≤ 10 nM
CCNC(=O)[C@@](C)(O)c1ccc(Nc2nc(-c3c(F)cccc3F)nc3c2C(=O)NC3)cc1 [Compound I-15, (S)-2-(4-((2-(2,6-difluorophenyl)-5-oxo-6,7-dihydro-5H-pyrrolo[3,4-d]pyrimidin-4-yl)amino)phenyl)-N-ethyl-2-hydroxypropanamide]	≤ 10 nM	≤ 2000 nM	2000 to 20000 nM	10 to 100 nM
O=C1CCOc2cc(Nc3cc(-c4c(F)cccc4F)nc4c3C(=O)NC4)ccc21 [Compound I-72, 2-(2,6-difluorophenyl)-4-((4-oxochroman-7-yl)amino)-6,7-dihy-dro-5H-pyrrolo[3,4-b]pyridin-5-one]	10 to 100 nM	> 20000 nM	> 20000 nM	≥ 1000 nM

Second part, the compound after the results:

Ki (TYK2)	EC50 [1]	EC50 [2]	Ki (JAK2)	SMILES
≤ 10 nM	≤ 2000 nM	2000 to 20000 nM	≤ 10 nM	O=C1NCc2nc(-c3c(F)cccc3F)cc(Nc3ccc(N4CCOC45COC5)cn3)c21 [Compound I-65, 4-((5-(2,5-dioxa-8-azaspiro[3.4]octan-8-yl)pyridin-2-yl)amino)-2-(2,6-difluorophenyl)-6,7-dihydro-5H-pyrrolo[3,4-b]pyridin-5-one]
≤ 10 nM	≤ 2000 nM	≤ 2000 nM	≤ 10 nM	O=C1NCc2nc(-c3c(F)cccc3F)cc(Nc3ccc(N4CCC5(CCOC5)CC4)cn3)c21 [Compound I-52, 4-((5-(2-oxa-8-azaspiro[4.5]decan-8-yl)pyridin-2-yl)amino)-2-(2,6-difluorophenyl)-6,7-dihydro-5H-pyrrolo[3,4-b]pyridin-5-one]
10 to 100 nM	> 20000 nM	> 20000 nM	≥ 1000 nM	O=C1NCc2c1c(Nc1ccc(C(=O)N3CCOCC3)cc1)cc(-c1c(F)cccc1F)[n+]2[O-] [Compound I-84, 2-(2,6-difluorophenyl)-4-((4-(morpholine-4-carbonyl)phenyl)-amino)-5-oxo-6,7-dihydro-5H-pyrrolo[3,4-b]pyridine 1-oxide]
≤ 10 nM	≤ 2000 nM	≤ 2000 nM	10 to 100 nM	O=C1NCc2nc(-c3c(F)cccc3F)cc(Nc3ccc(N4C[C@H]5CC[C@@H](C4)O5)cn3)c21 [Compound I-4, 4-((5-((1R,5S)-8-oxa-3-azabicyclo[3.2.1]octan-3-yl)pyridin-2-yl)amino)-2-(2,6-difluorophenyl)-6,7-dihydro-5H-pyrrolo[3,4-b]pyridin-5-one]
≤ 10 nM	≤ 2000 nM	≤ 2000 nM	≤ 10 nM	N#Cc1cccc(F)c1-c1cc(Nc2ccc(N3CCC4(CC(O)CO4)C3)cn2)c2c(n1)CNC2=O (stereo in doubt) [Compound I-89, 3-fluoro-2-(4-((5-((3S,5R)-3-hydroxy-1-oxa-7-azaspiro[4.4]nonan-7-yl)pyridin-2-yl)amino)-5-oxo-6,7-dihydro-5H-pyrrolo[3,4-b]pyridin-2-yl)benzonitrile]
≤ 10 nM	≤ 2000 nM	2000 to 20000 nM	10 to 100 nM	O=C1NCc2nc(-c3c(F)cccc3F)cc(Nc3cc4c(cn3)CCN4)c21 [Compound I-17, 2-(2,6-difluorophenyl)-4-((2,3-dihydro-1H-pyrrolo[3,2-c]pyridin-6-yl)amino)-6,7-dihydro-5H-pyrrolo[3,4-b]pyridin-5-one]
≤ 10 nM	≤ 2000 nM	2000 to 20000 nM	10 to 100 nM	O=C1NCc2nc(-c3c(F)cccc3F)cc(Nc3ccc(N4CCC5(CCO5)CC4)cn3)c21 [Compound I-25, 4-((5-(1-oxa-7-azaspiro[3.5]nonan-7-yl)pyridin-2-yl)amino)-2-(2,6-difluorophenyl)-6,7-dihydro-5H-pyrrolo[3,4-b]pyridin-5-one]
